Measured values published in ChEMBL document CHEMBL1157650, “Synthesis and bradykinin inhibitory activity of novel non-peptide compounds, and evaluation of in vivo analgesic activity” (2010).
Activity calls are given as the source filed them. No cut-off for these calls is given here.

Assays:
Ileum = assay: Inhibition of bradykinin-induced Hartley guinea pig ileum contraction at 1 uM relative to control; assay type: functional; conditions: Cavia porcellus
Rattus norvegicus [1] = assay: Antinociceptive activity against formalin-induced pain in rat assessed as time spent in licking, shaking or biting paw in early phase at 60 ug, sc (Rvb=47.05 +/- 8.53 sec); assay type: functional
Rattus norvegicus [2] = assay: Antinociceptive activity against formalin-induced pain in rat assessed as time spent in licking, shaking or biting paw in late phase at 60 ug, sc (Rvb=334.21 +/- 51.10 sec); assay type: functional
Rattus norvegicus [3] = assay: Analgesic activity in S1/S2 spinal nerve ligated rat model of neuropathic pain assessed as suppression of cold water-induced allodynia at 60 mg/kg, ip; assay type: functional, organism-based; set-up: dose 60 mg/kg
Rattus norvegicus [4] = assay: Analgesic activity in S1/S2 spinal nerve ligated rat model of neuropathic pain assessed as suppression of warm water-induced allodynia at 60 mg/kg, ip; assay type: functional, organism-based; set-up: dose 60 mg/kg
Rattus norvegicus [5] = assay: Analgesic activity in S1/S2 spinal nerve ligated rat model of neuropathic pain assessed as suppression of mechanical stimuli-induced allodynia at 60 mg/kg, ip; assay type: functional, organism-based; set-up: dose 60 mg/kg

SMILES | inhibition at 1 µM (Ileum) | also measured
Cc1ccc(CNC(=O)CCC(=O)N2CCN(C(c3ccccc3)c3ccc(Cl)cc3)CC2)cc1 (centres undefined) | 67.9% | 
COc1ccc(CNC(=O)CC(C)(C)CC(=O)N2CCN(C(c3ccccc3)c3ccc(Cl)cc3)CC2)cc1 (centres undefined) | 31.6% | 
COc1ccc(CNC(=O)CC(C)CC(=O)N2CCN(C(c3ccccc3)c3ccc(Cl)cc3)CC2)cc1 (centres undefined) | 64.9% | 
COc1ccc(CNC(=O)CC(C)CC(=O)N2CCCN(C(c3ccccc3)c3ccc(Cl)cc3)CC2)cc1 (centres undefined) | 78.3% | 
CC(CC(=O)NC1CCCCC1)CC(=O)N1CCCN(C(c2ccccc2)c2ccc(Cl)cc2)CC1 (centres undefined) | 80.3% | 
COc1cc(CNC(=O)CC(C)(C)CC(=O)N2CCN(C(c3ccccc3)c3ccc(Cl)cc3)CC2)cc(OC)c1OC (centres undefined) | 49.1% | 
COc1cc(CNC(=O)CCC(=O)N2CCN(C(c3ccccc3)c3ccc(Cl)cc3)CC2)cc(OC)c1OC (centres undefined) | 65.2% | 
Cc1ccc(CNC(=O)CCC(=O)N2CCCN(C(c3ccccc3)c3ccc(Cl)cc3)CC2)cc1 (centres undefined) | 67.7% | 
COc1cc(CNC(=O)CC(C)CC(=O)N2CCCN(C(c3ccccc3)c3ccc(Cl)cc3)CC2)cc(OC)c1OC (centres undefined) | 69.7% | 
CC(CC(=O)NC1CCCCC1)CC(=O)N1CCN(C(c2ccccc2)c2ccc(Cl)cc2)CC1 (centres undefined) | 60.8% | 
O=C(CCC(=O)N1CCN(C(c2ccccc2)c2ccc(Cl)cc2)CC1)NC1CCCCC1 (centres undefined) | 79% | 
CC(CCc1ccccc1)NC(=O)/C=C\C(=O)N1CCCN(C(c2ccccc2)c2ccc(Cl)cc2)CC1 (centres undefined) | 79.7% | 
CC(CC(=O)N(C)C)CC(=O)N1CCN(C(c2ccccc2)c2ccc(Cl)cc2)CC1 (centres undefined) | 36% | 
CC(C)(CC(=O)NC1CCCCC1)CC(=O)N1CCN(C(c2ccccc2)c2ccc(Cl)cc2)CC1 (centres undefined) | 28% | 
Cc1ccc(CNC(=O)/C=C\C(=O)N2CCCN(C(c3ccccc3)c3ccc(Cl)cc3)CC2)cc1 (centres undefined) | 79.4% | 
Cc1ccc(CNC(=O)/C=C\C(=O)N2CCN(C(c3ccccc3)c3ccc(Cl)cc3)CC2)cc1 (centres undefined) | 78.5% | 
COc1ccc(CNC(=O)CCC(=O)N2CCCN(C(c3ccccc3)c3ccc(Cl)cc3)CC2)cc1 (centres undefined) | 80.9% | 

SMILES | inhibition at 1 µM (Ileum) | also measured
O=C(/C=C\C(=O)N1CCN(C(c2ccccc2)c2ccc(Cl)cc2)CC1)NC1CCCCC1 (centres undefined) | 57.4% | 
COc1ccc(CNC(=O)/C=C\C(=O)N2CCCN(C(c3ccccc3)c3ccc(Cl)cc3)CC2)cc1 (centres undefined) | 75% | 
O=C(/C=C\C(=O)N1CCCN(C(c2ccccc2)c2ccc(Cl)cc2)CC1)NC1CCCCC1 (centres undefined) | 66% | 
Cc1ccc(CNC(=O)CC(C)CC(=O)N2CCCN(C(c3ccccc3)c3ccc(Cl)cc3)CC2)cc1 (centres undefined) | 81.3% | 
N=C(N)NCCC[C@@H](N)C(=O)N[C@@H](CCCNC(=N)N)C(=O)N1CCC[C@H]1C(=O)N1C[C@H](O)C[C@H]1C(=O)NCC(=O)N[C@@H](Cc1cccs1)C(=O)N[C@@H](CO)C(=O)N1Cc2ccccc2C[C@@H]1C(=O)N1[C@H](C(=O)N[C@@H](CCCNC(=N)N)C(=O)O)C[C@@H]2CCCC[C@@H]21 [ICATIBANT] | 100% | 
Cc1ccc(CNC(=O)CC(C)(C)CC(=O)N2CCN(C(c3ccccc3)c3ccc(Cl)cc3)CC2)cc1 (centres undefined) | 32.9% | 
CC(CCc1ccccc1)NC(=O)/C=C\C(=O)N1CCN(C(c2ccc(F)cc2)c2ccc(F)cc2)CC1 (centres undefined) | 86.6% | Activity (Rattus norvegicus [1]): 14.82 s; Activity (Rattus norvegicus [2]): 129.31 s; Activity (Rattus norvegicus [3]): Active; Activity (Rattus norvegicus [4]): Active; Activity (Rattus norvegicus [5]): inactive
CC(CCc1ccccc1)NC(=O)/C=C\C(=O)N1CCN(C(c2ccccc2)c2ccccc2)CC1 (centres undefined) | 77.5% | 
COc1ccc(CNC(=O)/C=C\C(=O)N2CCN(C(c3ccc(F)cc3)c3ccc(F)cc3)CC2)cc1 | 79.6% | 
COc1cc(CNC(=O)CCC(=O)N2CCCN(C(c3ccccc3)c3ccc(Cl)cc3)CC2)cc(OC)c1OC (centres undefined) | 72.6% | 
O=C(CCC(=O)N1CCCN(C(c2ccccc2)c2ccc(Cl)cc2)CC1)NC1CCCCC1 (centres undefined) | 71.7% | 
COc1ccc(CNC(=O)/C=C\C(=O)N2CCN(C(c3ccccc3)c3ccc(Cl)cc3)CC2)cc1 (centres undefined) | 74.1% | 
Cc1ccc(CNC(=O)CC(C)CC(=O)N2CCN(C(c3ccccc3)c3ccc(Cl)cc3)CC2)cc1 (centres undefined) | 64.8% | 
COc1cc(CNC(=O)CC(C)CC(=O)N2CCN(C(c3ccccc3)c3ccc(Cl)cc3)CC2)cc(OC)c1OC (centres undefined) | 53.1% | 
COc1ccc(CNC(=O)CCC(=O)N2CCN(C(c3ccccc3)c3ccc(Cl)cc3)CC2)cc1 (centres undefined) | 57.2% | 
Cc1ccc(CNC(=O)/C=C\C(=O)N2CCN(C(c3ccc(F)cc3)c3ccc(F)cc3)CC2)cc1 | 84.5% | 
O=C(/C=C\C(=O)N1CCN(C(c2ccc(F)cc2)c2ccc(F)cc2)CC1)NC1CCCCC1 | 65.4% | 
